Source: patent US8901118B2, “Compounds and methods for kinase modulation, and indications therefor” (Plexxikon Inc., priority 2010, dated 2014)

Columns and labels:
BCR-KIT BaF3 cells = biological target: T1, BCR-KIT BaF3 cells (Homo sapiens, UniProt P10721); assay: BaF3 BCR-KIT cell proliferation assay (ATPlite); assay type: cell-based; conditions: read-out: Inhibition of Cell Proliferation IC50, BCR/BaF3 Kit
T1 construct: fused on or other part: P11274 (Breakpoint cluster region protein)
Outline: (§1)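 For these proliferation assays, engineered BaF3 cells (10,000/well, IL-3 withdrawn) and MV-4-11 cells (25,000/well) received compound serially diluted 1:3 from 10 μM over 8 points, with DMSO as control. After three days of culture, ATP content was measured by luminescence to derive IC50.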

BCR-NTRK1 BaF3 cells = biological target: T2, BCR-NTRK1 BaF3 cells (Homo sapiens, UniProt P04629); assay: BaF3 BCR-NTRK1 cell proliferation assay (ATPlite); assay type: cell-based; conditions: read-out: Inhibition of Cell Proliferation IC50, BCR/BaF3 TrkA
T2 construct: fused on or other part: P11274 (Breakpoint cluster region protein)
T2 sequence (P04629 510-781): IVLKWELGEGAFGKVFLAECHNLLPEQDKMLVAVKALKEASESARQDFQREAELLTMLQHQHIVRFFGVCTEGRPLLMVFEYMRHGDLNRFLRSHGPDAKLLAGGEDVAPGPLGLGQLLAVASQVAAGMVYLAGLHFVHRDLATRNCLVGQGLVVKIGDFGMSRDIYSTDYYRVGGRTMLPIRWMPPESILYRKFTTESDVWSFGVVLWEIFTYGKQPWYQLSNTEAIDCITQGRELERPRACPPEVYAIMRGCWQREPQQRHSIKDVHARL
Outline: as §1

CYP2D6 = CYP2D6 (Homo sapiens, UniProt P10635); assay: CYP2D6 inhibition (fluorescent substrate AMMC); assay type: in vitro ADME; conditions: read-out: Cyp IC50 2D6
Sequence of CYP2D6 (P10635 whole entry): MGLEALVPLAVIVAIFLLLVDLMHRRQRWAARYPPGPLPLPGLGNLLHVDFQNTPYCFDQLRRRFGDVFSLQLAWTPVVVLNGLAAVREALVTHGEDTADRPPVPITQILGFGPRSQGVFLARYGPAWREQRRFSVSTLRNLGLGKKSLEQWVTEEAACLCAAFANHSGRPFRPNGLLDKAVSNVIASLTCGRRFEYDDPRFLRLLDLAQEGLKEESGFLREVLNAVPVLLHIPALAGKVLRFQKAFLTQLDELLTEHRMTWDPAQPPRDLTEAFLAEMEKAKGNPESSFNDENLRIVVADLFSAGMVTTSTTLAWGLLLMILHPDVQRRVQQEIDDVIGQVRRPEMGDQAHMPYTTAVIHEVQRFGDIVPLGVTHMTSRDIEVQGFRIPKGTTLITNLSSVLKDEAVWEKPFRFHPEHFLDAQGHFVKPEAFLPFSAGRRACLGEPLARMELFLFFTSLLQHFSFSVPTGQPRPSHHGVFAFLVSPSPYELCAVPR
Outline: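 Test compound titrated 1:1 across ten concentrations; metabolite fluorescence measured after 37 °C incubation of 15 min (CYP1A2), 30 min (CYP2C19, CYP2D6) or 45 min (CYP2C9). IC50 from signal versus concentration.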

T1 sequence (P10721 589-937): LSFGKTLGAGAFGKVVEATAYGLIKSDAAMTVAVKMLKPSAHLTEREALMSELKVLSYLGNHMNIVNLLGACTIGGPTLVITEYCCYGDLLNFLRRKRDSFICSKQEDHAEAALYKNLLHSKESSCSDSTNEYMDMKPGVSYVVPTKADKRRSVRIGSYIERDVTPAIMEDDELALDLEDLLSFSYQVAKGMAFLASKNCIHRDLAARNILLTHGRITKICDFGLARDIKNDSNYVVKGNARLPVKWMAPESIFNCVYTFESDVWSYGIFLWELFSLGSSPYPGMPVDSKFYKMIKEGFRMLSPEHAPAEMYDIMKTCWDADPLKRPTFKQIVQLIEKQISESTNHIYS

| IC50 (BCR-KIT BaF3 cells) [nM] | IC50 (BCR-NTRK1 BaF3 cells) [nM] | IC50 (CYP2D6) [nM] | Compound |
| --- | --- | --- | --- |
| < 100 | < 10 | > 10000 | CCc1ccc(Nc2ccc(C(=O)c3c[nH]c4ncnc(NC5CCC5)c34)c(F)n2)cn1 [Compound P-4095, [4-(cyclobutylamino)-7H-pyrrolo[2,3-d]pyrimidin-5-yl]-[6-[(6-ethyl-3-pyridyl)amino]-2-fluoro-3-pyridyl]methanone] |
| > 1000 | < 1000 | > 10000 | COc1ccc(Nc2ccc(C(=O)c3c[nH]c4ncnc(NC5CCC(F)(F)CC5)c34)c(F)n2)cn1 [Compound P-4056, [4-[(4,4-difluorocyclohexyl)amino]-7H-pyrrolo[2,3-d]pyrimidin-5-yl]-[2-fluoro-6-[(6-methoxy-3-pyridyl)amino]-3-pyridyl]methanone] |
| > 1000 | < 1000 | < 5000 | CNc1ncnc2[nH]cc(C(=O)c3ccc(Nc4cncc(OC)c4)nc3F)c12 [Compound P-4108, [2-fluoro-6-[(5-methoxy-3-pyridyl)amino]-3-pyridyl]-[4-(methylamino)-7H-pyrrolo[2,3-d]pyrimidin-5-yl]methanone] |
| < 1000 | < 1000 | > 10000 | Fc1ccc(Nc2ncc(Cc3c[nH]c4ncc(Cl)cc34)cn2)cc1 [Compound P-3012, [5-(5-Chloro-1H-pyrrolo[2,3-b]pyridin-3-ylmethyl)-pyrimidin-2-yl]-(4-fluoro-phenyl)-amine] |
| < 100 | < 10 | < 5000 | CCc1ccc(Nc2ccc(C(=O)c3c[nH]c4ncnc(NCCCOC)c34)c(F)n2)cn1 [Compound P-4098, [6-[(6-ethyl-3-pyridyl)amino]-2-fluoro-3-pyridyl]-[4-(3-methoxypropylamino)-7H-pyrrolo[2,3-d]pyrimidin-5-yl]methanone] |
| < 1000 | < 100 | < 5000 | COc1cncc(Nc2ccc(C(=O)c3c[nH]c4ncnc(NC(C)C)c34)c(F)n2)c1 [Compound P-4106, [2-fluoro-6-[(5-methoxy-3-pyridyl)amino]-3-pyridyl]-[4-(isopropylamino)-7H-pyrrolo[2,3-d]pyrimidin-5-yl]methanone] |
| < 100 | < 10 | > 10000 | O=C(c1ccc(Nc2ccc(C3CC3)nc2)nc1F)c1c[nH]c2ncnc(NC3CC3)c12 [Compound P-4093, [4-(cyclopropylamino)-7H-pyrrolo[2,3-d]pyrimidin-5-yl]-[6-[(6-cyclopropyl-3-pyridyl)amino]-2-fluoro-3-pyridyl]methanone] |
| < 1000 | < 10 | > 10000 | O=C(c1ccc(NC2CCC(F)(F)CC2)nc1F)c1c[nH]c2ncnc(NC3CC3)c12 [Compound P-4062, [4-(cyclopropylamino)-7H-pyrrolo[2,3-d]pyrimidin-5-yl]-[6-[(4,4-difluorocyclohexyl)amino]-2-fluoro-3-pyridyl]methanone] |
| < 100 | < 10 | > 10000 | CCCNc1ncnc2[nH]cc(C(=O)c3ccc(Nc4ccc(CC)nc4)nc3F)c12 [Compound P-4122, [6-[(6-ethyl-3-pyridyl)amino]-2-fluoro-3-pyridyl]-[4-(propylamino)-7H-pyrrolo[2,3-d]pyrimidin-5-yl]methanone] |
| < 1000 | < 100 | < 5000 | CCc1ccc(Nc2ccc(C(=O)c3c[nH]c4ncnc(N[C@@H](C)c5ccc(F)cc5)c34)c(F)n2)cn1 [Compound P-4097, [6-[(6-ethyl-3-pyridyl)amino]-2-fluoro-3-pyridyl]-[4-[[(1S)-1-(4-fluorophenyl)ethyl]amino]-7H-pyrrolo[2,3-d]pyrimidin-5-yl]methanone] |
| < 1000 | < 100 | > 10000 | CCN1CCC(Nc2ncnc3[nH]cc(C(=O)c4ccc(Nc5ccc(OC)nc5)nc4F)c23)CC1 [Compound P-4074, [4-[(1-ethyl-4-piperidyl)amino]-7H-pyrrolo[2,3-d]pyrimidin-5-yl]-[2-fluoro-6-[(6-methoxy-3-pyridyl)amino]-3-pyridyl]methanone] |
| < 1000 | < 10 | < 5000 | CCc1ccc(Nc2ccc(C(=O)c3c[nH]c4ncnc(NCC(F)(F)F)c34)c(F)n2)cn1 [Compound P-4120, [6-[(6-ethyl-3-pyridyl)amino]-2-fluoro-3-pyridyl]-[4-(2,2,2-trifluoroethylamino)-7H-pyrrolo[2,3-d]pyrimidin-5-yl]methanone] |
| > 1000 | > 1000 | > 10000 | O=C(c1ccc(NC2CCC(F)(F)CC2)nc1Cl)c1c[nH]c2ncnc(NCC(F)(F)F)c12 [Compound P-4057, [2-chloro-6-[(4,4-difluorocyclohexyl)amino]-3-pyridyl]-[4-(2,2,2-trifluoroethylamino)-7H-pyrrolo[2,3-d]pyrimidin-5-yl]methanone] |
| < 100 | < 10 | > 10000 | CCCCNc1ncnc2[nH]cc(C(=O)c3ccc(Nc4ccc(OC)nc4)nc3F)c12 [Compound P-4080, [4-(butylamino)-7H-pyrrolo[2,3-d]pyrimidin-5-yl]-[2-fluoro-6-[(6-methoxy-3-pyridyl)amino]-3-pyridyl]methanone] |
| < 100 | < 1000 | > 10000 | Clc1ccc(Nc2ncc(Cc3c[nH]c4ncc(Cl)cc34)cn2)cc1 [Compound P-3011, (4-Chloro-phenyl)-[5-(5-chloro-1H-pyrrolo[2,3-b]pyridin-3-ylmethyl)-pyrimidin-2-yl]-amine] |
| < 100 | < 10 | > 10000 | CCc1ccc(Nc2ccc(C(=O)c3c[nH]c4ncnc(NC5CCOCC5)c34)c(F)n2)cn1 [Compound P-4116, [6-[(6-ethyl-3-pyridyl)amino]-2-fluoro-3-pyridyl]-[4-(tetrahydropyran-4-ylamino)-7H-pyrrolo[2,3-d]pyrimidin-5-yl]methanone] |
| < 1000 | < 100 | > 10000 | O=C(c1ccc(Nc2ccc(C3CC3)nc2)nc1F)c1c[nH]c2ncnc(NCC(F)(F)F)c12 [Compound P-4090, [6-[(6-cyclopropyl-3-pyridyl)amino]-2-fluoro-3-pyridyl]-[4-(2,2,2-trifluoroethylamino)-7H-pyrrolo[2,3-d]pyrimidin-5-yl]methanone] |
| < 1000 | < 100 | < 5000 | CNc1ncnc2[nH]cc(C(=O)c3ccc(Nc4ccc(C)nc4)nc3F)c12 [Compound P-4115, [2-fluoro-6-[(6-methyl-3-pyridyl)amino]-3-pyridyl]-[4-(methylamino)-7H-pyrrolo[2,3-d]pyrimidin-5-yl]methanone] |
| < 1000 | > 1000 | < 5000 | CNc1ncnc2[nH]cc(C(=O)c3ccc(NC4CCCCC4)nc3Cl)c12 [Compound P-4110, [2-chloro-6-(cyclohexylamino)-3-pyridyl]-[4-(methylamino)-7H-pyrrolo[2,3-d]pyrimidin-5-yl]methanone] |
| < 100 | < 10 | > 10000 | COc1ccc(Nc2ccc(C(=O)c3c[nH]c4ncnc(NC5CC5)c34)c(F)n2)cn1 [Compound P-4126, [4-(cyclopropylamino)-7H-pyrrolo[2,3-d]pyrimidin-5-yl]-[2-fluoro-6-[(6-methoxy-3-pyridyl)amino]-3-pyridyl]methanone] |
| < 100 | < 10 | > 10000 | COc1ccc(Nc2ccc(C(=O)c3c[nH]c4ncnc(NC5CCC5)c34)c(F)n2)cn1 [Compound P-4076, [4-(cyclobutylamino)-7H-pyrrolo[2,3-d]pyrimidin-5-yl]-[2-fluoro-6-[(6-methoxy-3-pyridyl)amino]-3-pyridyl]methanone] |
| < 100 | < 10 | < 5000 | CCc1ccc(Nc2ccc(C(=O)c3c[nH]c4ncnc(NC)c34)c(F)n2)cn1 [Compound P-4124, [6-[(6-ethyl-3-pyridyl)amino]-2-fluoro-3-pyridyl]-[4-(methylamino)-7H-pyrrolo[2,3-d]pyrimidin-5-yl]methanone] |
| < 100 | < 10 | > 10000 | CCC(CC)Nc1ncnc2[nH]cc(C(=O)c3ccc(Nc4ccc(OC)nc4)nc3F)c12 [Compound P-4077, [4-(1-ethylpropylamino)-7H-pyrrolo[2,3-d]pyrimidin-5-yl]-[2-fluoro-6-[(6-methoxy-3-pyridyl)amino]-3-pyridyl]methanone] |
| < 100 | < 10 | > 10000 | CCNc1ncnc2[nH]cc(C(=O)c3ccc(Nc4ccc(CC)nc4)nc3F)c12 [Compound P-4123, [4-(ethylamino)-7H-pyrrolo[2,3-d]pyrimidin-5-yl]-[6-[(6-ethyl-3-pyridyl)amino]-2-fluoro-3-pyridyl]methanone] |
| < 100 | < 100 | > 10000 | COc1ccc(Nc2ccc(C(=O)c3c[nH]c4ncnc(NCc5ccc(C(F)(F)F)nc5)c34)c(F)n2)cn1 [Compound P-4071, [2-fluoro-6-[(6-methoxy-3-pyridyl)amino]-3-pyridyl]-[4-[[6-(trifluoromethyl)-3-pyridyl]methylamino]-7H-pyrrolo[2,3-d]pyrimidin-5-yl]methanone] |
| < 100 | < 10 | > 10000 | COc1ccc(Nc2ccc(C(=O)c3c[nH]c4ncnc(NCC5CC5)c34)c(F)n2)cn1 [Compound P-4067, [4-(cyclopropylmethylamino)-7H-pyrrolo[2,3-d]pyrimidin-5-yl]-[2-fluoro-6-[(6-methoxy-3-pyridyl)amino]-3-pyridyl]methanone] |
